Measured values as given in patent US10710979B2, “EGFR kinase inhibitor and preparation method and use thereof” (ZHEJIANG BOSSAN PHARMACEUTICAL CO. LTD., priority 2015, dated 2020).

Tests used:
[1] = test system: human hepatoma cell HepG2; assay: Effect of compounds on proliferation of tumor cells (MTT), HepG2; type: cell-based; settings: 72 hours
Protocol: (§1) Human lung cancer cells H1975, H522, human hepatoma cell HepG2, human melanoma cell A375, human epidermal cancer cell A431, and human colon cancer cells COLO205 were cultivated. The cells were collected when they have grown to logarithmic growth phase, and centrifuged at 1000 rpm for 5 min, from which the supernatant was discarded, and the rest was suspended with appropriate amount of medium, and the concentration of cells was adjusted to 2.5-5.5×10^4/ml (once it was 3.0-5.5×10^4/ml). The cell suspension was inoculated into a 96-well cell culture plate with 100 μl per well, and placed in a cell incubator (37° C., 5% CO2) for 24 hours, and then 100 μl of the drug diluted in the cell culture medium was added to each well of the drug group. Three duplicate wells were set for each drug, and the negative control group was medium containing 0.5% DMSO. After being incubated for 72 hours in the incubator, 20 μl of MTT (5 mg/ml) was added to each well, which was placed under 37° C. for 3 hours. 150 μl of DMSO was added to each well and shaken at 37° C. for 5 mins, and absorbance (OD) was determined at 492 nm. The Prism Graphpad statistical software was used to calculate IC50 values.

[2] = test system: human lung cancer cells H1975; assay: Effect of compounds on proliferation of tumor cells (MTT), H1975; type: cell-based; settings: for IC50: Homo sapiens, NCI-H1975, H1975 cells, 72 hours, MTT
Protocol: as §1

[3] = test system: human lung cancer cells H522; assay: Effect of compounds on proliferation of tumor cells (MTT), H522; type: cell-based; settings: NCI-H522, 72 hours
Protocol: as §1

[4] = test system: human colon cancer cells COLO205; assay: Effect of compounds on proliferation of tumor cells (MTT), COLO205; type: cell-based; settings: COLO 205, 72 hours
Protocol: as §1

[5] = test system: human epidermal cancer cell A431; assay: Effect of compounds on proliferation of tumor cells (MTT), A431; type: cell-based; settings: A-431, 72 hours
Protocol: as §1

human melanoma cell A375 = assay: Effect of compounds on proliferation of tumor cells (MTT), A375; type: cell-based; settings: A-375, 72 hours
Protocol: as §1

[6] = test system: subcutaneously transplanted lung cancer H1975 tumors; assay: In vivo efficacy in inhibiting human lung cancer H1975 xenograft; set-up: species or system BALB/c nude mice; settings: 30.0 mg/kg ig qd × 14 d; for Inhibition rate of tumor IR (tumor weight): tumor weight on day 14 vs negative control
Protocol: The inhibitory effect of ES series compounds to subcutaneously transplanted lung cancer H1975 tumors in nude mice was evaluated.
BALB/c nude mice, female, weighing 17-20 g, purchased from Beijing Weitong Lihua Experimental Animal Technology Co., Ltd. (license number: SCXK (Beijing) 2012-0001). Feeding environment: SPF grade animal room, free feeding, 12 h light/12 h dark.
Under aseptic conditions, H1975 cells in the proliferation stage were taken, whose cell concentration was adjusted after digestion, and seeded at armpit of nude mice with a volume of 0.1 mL. Tumor diameter was measured with vernier caliper, and after the tumor was grown to about 400 mm^3, 30 tumor-bearing mice were selected, which were randomly divided into 5 groups according to the size of the tumors. Each group was dosed according to the set dosing regimen, and the administering day was recorded as D1. The negative control group was given the same amount of vehicle. The longer and shorter diameters of tumor were measured twice a week; meanwhile the body weights of mice were weighed.
The relevant indicators were observed, measured and recorded on the first day of dosing. During the experiment, the tumor size was measured with a vernier caliper to observe the volume change and growth rate of the tumor mass. Tumor-bearing mice were sacrificed at the end of the experiment and the tumor mass was dissected and weighed.
Efficacy evaluation indicators include: relative tumor proliferation rate and weight, general status and other related toxicity indicators. At the end of the experiment, the tumor growth curve and weight change curve were drawn for each group.
The calculation formula of tumor volume (TV) is: TV=1/2×a×b^2, in which a and b respectively represent the longer and shorter diameters of the tumor. The relative tumor volume (RTV) was calculated based on the measured results and the formula was: RTV=Vt/V0, in which V0 is the tumor volume measured before dosing, and Vt is the tumor volume at each measurement after dosing.
The evaluation index of anti-tumor activity is relative tumor proliferation rate T/C (%), and the formula is as follows: […], TRTV: treatment group's RTV; CRTV: negative control group's RTV. T/C (%)≤40% and statistical treatment P<0.05 mean effective. The tumor weight (TW) is lower than that of the negative control group and statistical treatment P<0.05 mean effective. Inhibition rate of tumor IR (%)=(1−TTW/CTW)×100%, TTW: treatment group's TW; CTW: negative control group's TW.
The data was expressed as Mean±SD, and t-tests were used for comparison between groups.

SMILES | IC50 [1] [nM] | IC50 [2] [nM] | IC50 [3] [nM] | IC50 [4] [nM] | IC50 [5] [nM] | IC50 (human melanoma cell A375) [nM] | Inhibition rate of tumor IR (tumor weight) [6] [%] | Volume of subcutaneous tumors / anti-tumor effect ([6]; after 14 days) | Inhibitory concentration relative to control compound 1686 ([2]; for most of the tumor cells of Test Example 1)
C=CC(=O)Nc1cccc(Nc2nc(Nc3ccc(N4CCN(C(=O)C5CC5)CC4)nc3OC)ncc2C(F)(F)F)c1 [ES-130] | 794 | 35.6 | 1770 | 3350 | 2250 | 4590 | – | – | –
C=CC(=O)Nc1cccc(Nc2nc(Nc3ccc(N(C)C4CCN(C(C)=O)C4)nc3OC)ncc2C(F)(F)F)c1 (stereo not drawn) [ES-147] | 4280 | 464 | 1740 | 4290 | 2210 | 4200 | – | – | –
C=CC(=O)Nc1cccc(Nc2nc(Nc3ccc(N4CCN(S(=O)(=O)CC)CC4)nc3OC)ncc2C(F)(F)F)c1 [ES-143] | 401 | 480 | 1070 | 2150 | > 100000 | 2020 | – | – | –
C=CC(=O)Nc1cccc(Nc2nc(Nc3ccc(N4CCN(C(=O)N(C)C)CC4)nc3)ncc2C(F)(F)F)c1 [ES-158] | 3420 | 107 | 735 | 1930 | 1070 | 3760 | – | – | –
C=CC(=O)Nc1cccc(Nc2nc(Nc3ccc(N(C)C4CCN(C)C4)nc3OC)ncc2C(F)(F)F)c1 (stereo not drawn) [ES-150] | 3270 | 23.2 | 1510 | 5150 | 2050 | 6220 | – | – | –
C=CC(=O)Nc1cccc(Nc2nc(Nc3ccc(N(C)C4CCN(CCF)C4)nc3OC)ncc2C(F)(F)F)c1 (stereo not drawn) [ES-148] | 4530 | 32 | 1560 | 5000 | 2500 | 5870 | – | – | –
C=CC(=O)Nc1cccc(Nc2nc(Nc3ccc(N4CCN(C(=O)N(C)C)CC4)nc3OC)ncc2C(F)(F)F)c1 [ES-131] | 3070 | 57.9 | 2400 | 5330 | 3820 | 4040 | – | – | –
C=CC(=O)Nc1cccc(Nc2nc(Nc3ccc(N4CCN(C(C)=O)CC4)nc3)ncc2C(F)(F)F)c1 [ES-157] | 1380 | 87.2 | 655 | 1800 | 1810 | 5460 | – | – | –

Second part, led by results:

IC50 [1] [nM] | IC50 [2] [nM] | IC50 [3] [nM] | IC50 [4] [nM] | IC50 [5] [nM] | IC50 (human melanoma cell A375) [nM] | SMILES | Inhibition rate of tumor IR (tumor weight) [6] [%] | Volume of subcutaneous tumors / anti-tumor effect ([6]; after 14 days) | Inhibitory concentration relative to control compound 1686 ([2]; for most of the tumor cells of Test Example 1)
1490 | 52.5 | 522 | 4720 | 1570 | 3000 | C=CC(=O)Nc1cccc(Nc2nc(Nc3ccc(N4CCN(C(C)=O)CC4)cc3OC)ncc2C(F)(F)F)c1 [Compound 1686, reference compound] | 50.09 | – | –
3310 | 34.2 | – | – | 774 | 2400 | C=CC(=O)Nc1cccc(Nc2nc(Nc3ccc(N4CCN(C)CC4)nc3OC)ncc2C(F)(F)F)c1 [ES-072] | 79.42 | better than that of the positive control group CO-1686 | –
3540 | 36.7 | – | – | 1270 | 2740 | C=CC(=O)Nc1cccc(Nc2nc(Nc3cnc(N4CCN(C)CC4)cc3OC)ncc2C(F)(F)F)c1 [ES-075] | 37.27 | – | –
968 | 22.8 | – | – | 992 | 2260 | C=CC(=O)Nc1cccc(Nc2nc(Nc3ccc(N4CCN(C(C)=O)CC4)nc3OC)ncc2C(F)(F)F)c1 [ES-071] | 50.93 | – | ½
